Drawing on patent US10988478B1, “Pyrazolo[1,5a]pyrimidine derivatives as IRAK4 modulators” (Genentech, Inc., priority 2015, dated 2021), this text covers Ki for 11 compounds.

Sequence of human IRAK4 (Q9NWZ3 whole entry, the tested form may be a part): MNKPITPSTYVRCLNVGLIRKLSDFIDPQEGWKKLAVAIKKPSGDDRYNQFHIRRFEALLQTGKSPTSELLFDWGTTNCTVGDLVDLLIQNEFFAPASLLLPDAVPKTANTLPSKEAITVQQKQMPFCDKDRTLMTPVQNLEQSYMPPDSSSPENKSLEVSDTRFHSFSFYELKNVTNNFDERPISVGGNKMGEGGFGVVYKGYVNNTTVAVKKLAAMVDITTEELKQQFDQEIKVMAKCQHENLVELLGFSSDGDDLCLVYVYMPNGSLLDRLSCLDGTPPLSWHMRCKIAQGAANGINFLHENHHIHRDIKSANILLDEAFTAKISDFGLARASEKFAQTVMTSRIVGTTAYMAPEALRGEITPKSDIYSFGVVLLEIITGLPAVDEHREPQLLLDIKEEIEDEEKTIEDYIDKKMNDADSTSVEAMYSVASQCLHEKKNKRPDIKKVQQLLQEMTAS

This experiment deals with human IRAK4 (Homo sapiens (Human), UniProt Q9NWZ3). Kind of experiment: IRAK4 kinase inhibition, Transcreener fluorescence polarization ADP assay. The class given is biochemical. Conditions: recombinant full-length His6-IRAK4; 125 uM ATP; 90 min; Ki computed using ATP Km 642 uM. As to the method:
Compounds were assayed for inhibition of human IRAK4 and IRAK1 catalytic activity using recombinant enzyme produced from insect cells. Full-length IRAK4 protein, carrying an N-terminal His6-Tag, was obtained from Life Technologies (Carlsbad, Calif., USA). The IRAK1 construct was produced internally and was comprised of IRAK1 residues Arg194 to Ser712, preceded by an NH2-terminal His6 tag and the coding sequence for glutathione-S-transferase.
On to `CCC(=O)C1CCN(c2cc3c(cc2NC(=O)c2cnn4cccnc24)CC(C)(CO)O3)CC1` (centres unmarked) [Example 343, N-[2-(Hydroxymethyl)-2-methyl-6-(4-propanoyl-1-piperidyl)-3H-benzofuran-5-yl]pyrazolo[1,5-a]pyrimidine-3-carboxamide], for which the Ki (as a rule, the equilibrium dissociation constant of an inhibitor or competing ligand from its target) was 5 nM.

`C[C@]1(CO)Cc2cc(NC(=O)c3cnn4cccnc34)c(N3C[C@@H]4[C@H](C3)[C@@H]4C(N)=O)cc2O1` [Example 348, N-((R)-6-((1R,5S,6S)-6-carbamoyl-3-azabicyclo[3.1.0]hexan-3-yl)-2-(hydroxymethyl)-2-methyl-2,3-dihydrobenzofuran-5-yl)pyrazolo[1,5-a]pyrimidine-3-carboxamide]: the Ki was found to be 890 nM.

With `C[C@@]1(CO)Cc2cc(NC(=O)c3cnn4cccnc34)c(N3C[C@@H]4[C@H](C3)[C@@H]4C(N)=O)cc2O1` [Example 349, N-((S)-6-((1R,5S,6R)-6-carbamoyl-3-azabicyclo[3.1.0]hexan-3-yl)-2-(hydroxymethyl)-2-methyl-2,3-dihydrobenzofuran-5-yl)pyrazolo[1,5-a]pyrimidine-3-carboxamide], the Ki came out at 1100 nM.

In the case of `CC1(CO)Cc2cc(NC(=O)c3cnn4cccnc34)c(N3CCC(C(O)C(F)F)CC3)cc2O1` (centres unmarked) [Example 352, N-(6-(4-(2,2-Difluoro-1-hydroxyethyl)piperidin-1-yl)-2-(hydroxymethyl)-2-methyl-2,3-dihydrobenzofuran-5-yl)pyrazolo[1,5-a]pyrimidine-3-carboxamide], the Ki turned out to be 2 nM.

`CC(C)(O)[C@]1(C)Cc2cc(NC(=O)c3cnn4cccnc34)c(N3CCC(CO)CC3)cc2O1` [Example 354, (S)—N-(6-(4-(Hydroxymethyl)piperidin-1-yl)-2-(2-hydroxypropan-2-yl)-2-methyl-2,3-dihydrobenzofuran-5-yl)pyrazolo[1,5-a]pyrimidine-3-carboxamide]: the Ki was 3 nM.

Take `CC(C)(O)[C@@]1(C)Cc2cc(NC(=O)c3cnn4cccnc34)c(N3CCC(CO)CC3)cc2O1` [Example 355, (R)—N-(6-(4-(Hydroxymethyl)piperidin-1-yl)-2-(2-hydroxypropan-2-yl)-2-methyl-2,3-dihydrobenzofuran-5-yl)pyrazolo[1,5-a]pyrimidine-3-carboxamide]: the Ki worked out at 6 nM.

As for `CC(C)(O)C1(C)Cc2cc(NC(=O)c3cnn4cccnc34)c(N3CCN(CC(N)=O)CC3)cc2O1` (centres unmarked) [Example 356, N-[6-[4-(2-amino-2-oxo-ethyl)piperazin-1-yl]-2-(1-hydroxy-1-methyl-ethyl)-2-methyl-3H-benzofuran-5-yl]pyrazolo[1,5-a]pyrimidine-3-carboxamide], the Ki stood at 4 nM.

`CC1(C)Cc2cc(NC(=O)c3cnn4cccnc34)c(C3CCN(CCO)CC3)cc2O1` [Example 357, N-(6-(1-(2-Hydroxyethyl)piperidin-4-yl)-2,2-dimethyl-2,3-dihydrobenzofuran-5-yl)pyrazolo[1,5-a]pyrimidine-3-carboxamide]: the Ki turned out to be 410 nM.

Consider `CC1(C)Oc2cc(NC(=O)c3cnn4cccnc34)c(N3CCOCC3)cc2C1O` (centres unmarked) [Example 358, N-(3-Hydroxy-2,2-dimethyl-5-morpholino-2,3-dihydrobenzofuran-6-yl)pyrazolo[1,5-a]pyrimidine-3-carboxamide], for which the Ki is 510 nM.

As to `CC1(C)Oc2cc(NC(=O)c3cnn4cccnc34)c(N3CCOCC3)cc2C1=O` [Example 359, N-(2,2-dimethyl-5-morpholino-3-oxo-2,3-dihydrobenzofuran-6-yl)pyrazolo[1,5-a]pyrimidine-3-carboxamide], the Ki turned out to be 260 nM.

With `CC(C)(O)[C@@]1(C)Cc2cc(NC(=O)c3cnn4cccnc34)c(N3CCN(CC(F)F)CC3)cc2O1` [Example 360, (R)—N-(6-(4-(2,2-Difluoroethyl)piperazin-1-yl)-2-(2-hydroxypropan-2-yl)-2-methyl-2,3-dihydrobenzofuran-5-yl)pyrazolo[1,5-a]pyrimidine-3-carboxamide], the Ki was 6.3 nM.
